Assay results: BindingDB's records for doi:10.1021/jm050256l (Umr 8525 Cnrs-Universit&#233, 2005)

Target: T1, Glutathione reductase, mitochondrial (Homo sapiens, UniProt P00390)
T1 sequence (P00390 whole entry): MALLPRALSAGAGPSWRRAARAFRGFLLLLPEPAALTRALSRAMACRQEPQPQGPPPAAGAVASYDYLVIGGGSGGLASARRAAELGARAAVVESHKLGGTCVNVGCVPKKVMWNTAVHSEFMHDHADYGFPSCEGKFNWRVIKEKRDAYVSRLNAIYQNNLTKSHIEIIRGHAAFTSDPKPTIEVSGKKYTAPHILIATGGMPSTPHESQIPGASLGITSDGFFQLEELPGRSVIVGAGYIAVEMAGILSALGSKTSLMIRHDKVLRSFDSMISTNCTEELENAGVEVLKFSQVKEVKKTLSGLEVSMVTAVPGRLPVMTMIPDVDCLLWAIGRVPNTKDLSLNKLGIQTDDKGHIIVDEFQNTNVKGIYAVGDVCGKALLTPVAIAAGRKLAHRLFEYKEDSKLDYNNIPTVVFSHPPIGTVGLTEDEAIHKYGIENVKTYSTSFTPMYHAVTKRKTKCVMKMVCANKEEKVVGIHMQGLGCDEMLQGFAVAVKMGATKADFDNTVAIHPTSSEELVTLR
Assay: Inhibitory concentration against human glutathione reductase

SMILES: O=C(Cc1ccc2ccc(NC(=O)C[N]3CC[NH][Pt]3([Cl])[Cl])cc2c1)NNC(=O)c1ccc([N+](=O)[O-])o1 [2-(2-Amino-ethylamino)-N-(7-{2-[N'-(5-nitro-furan-2-carbonyl)-hydrazino]-2-oxo-ethyl}-naphthalen-2-yl)-acetamide; compound with GENERIC INORGANIC NEUTRAL COMPONENT]
- IC50: 1000 nM
